pIC50: −log10 of the molar value. The source made the active and inactive calls. The calls are words filed in the database; no cut-off is given here.
Key:
[1] = system: HepG2; test: Cell cycle arrest in human HepG2 cells assessed as accumulation at G2/M phase at 500 nM after 24 hrs by propidium iodide staining-based flow cytometry; type: functional
[2] = system: RD; test: Cell cycle arrest in human RD cells assessed as accumulation at G2/M phase at 500 nM after 24 hrs by propidium iodide staining-based flow cytometry; type: functional
[3] = system: RD; test: Cytotoxicity against human RD cells assessed as growth inhibition after 48 hrs by MTT method; type: functional, cell-based
[4] = system: HepG2; test: Cell cycle arrest in human HepG2 cells at 500 to 2000 nM incubated for 24 hrs followed by compound washout measured after 24 hrs; type: functional, cell-based
[5] = Cell cycle arrest in human PC3 cells assessed as accumulation at G2/M phase at 500 nM after 24 hrs by propidium iodide staining-based flow cytometry; type: functional; details: PC-3
[6] = system: RD; test: Cell cycle arrest in human RD cells at 500 nM incubated for 24 hrs followed by compound washout measured after 24 hrs; type: functional, cell-based
[7] = system: HepG2; test: Induction of apoptosis in human HepG2 cells after 48 hrs by annexin-V/propidium iodide staining-based flow cytometry; type: functional, cell-based
[8] = Cell cycle arrest in human PC3 cells at 500 to 2000 nM incubated for 24 hrs followed by compound washout measured after 24 hrs; type: functional, cell-based; details: PC-3
[9] = system: RD; test: Cell cycle arrest in human RD cells at 1000 to 2000 nM incubated for 24 hrs followed by compound washout measured after 24 hrs; type: functional, cell-based
[10] = system: HepG2; test: Cell cycle arrest in human HepG2 cells assessed as rounded cells at 500 nM after 24 hrs by propidium iodide staining-based flow cytometry; type: functional
[11] = system: RD; test: Cell cycle arrest in human RD cells assessed as rounded cells at 500 nM after 24 hrs by propidium iodide staining-based flow cytometry; type: functional
[12] = Cell cycle arrest in human PC3 cells assessed as rounded cells at 500 nM after 24 hrs by propidium iodide staining-based flow cytometry; type: functional; details: PC-3
[13] = system: K562; test: Cell cycle arrest in human K562 cells assessed as mitotic index at 0.1 nM (reference value: 3 +/- 1%); type: functional
[14] = system: HeLa; test: Cell cycle arrest in human HeLa cells assessed as accumulation at G2/M phase at 20 nM by propidium iodide staining-based flow cytometry; type: functional
[15] = system: HeLa; test: Induction of apoptosis in human HeLa cells assessed as failure of MT elongation at 100 nM by immunofluorescence analysis; type: functional, cell-based
[16] = system: HeLa; test: Induction of apoptosis in human HeLa cells assessed as short, aberrantly shaped, tripolar or multipolar microtubule microtubule at 20 nM by immunofluorescence analysis; type: functional, cell-based
[17] = system: HeLa; test: Induction of apoptosis in human HeLa cells assessed as failure of MT elongation at 20 nM by immunofluorescence analysis; type: functional, cell-based
[18] = system: HeLa; test: Induction of apoptosis in human HeLa cells assessed as unstructured tubulin foci at 100 nM by immunofluorescence analysis; type: functional, cell-based
[19] = cells; details: Homo sapiens, HCT-15, 72 h
Description: Cytotoxicity against human HCT15 cells assessed as growth inhibition after 72 hrs by CellTitre-Glo assay

[20] = system: HeLa; test: Cell cycle arrest in human HeLa cells assessed as mitotic rounded-up phenotype at 20 nM by light microscopy; type: functional, cell-based
[21] = Cytotoxicity against human MESSA/DX5 cells assessed as growth inhibition after 72 hrs by CellTitre-Glo assay; type: functional, cell-based; details: MES-SA/Dx5, 72 h
[22] = Cytotoxicity against human MESSA cells assessed as growth inhibition after 72 hrs by CellTitre-Glo assay; type: functional, cell-based; details: MES-SA
[23] = cells; details: Homo sapiens, OVCAR-8, 96 h
Description: Cytotoxicity against human OVCAR8 cells assessed as growth inhibition after 96 hrs by Giemsa staining-based light microscopy

[24] = system: HepG2; test: Cytotoxicity against human HepG2 cells assessed as growth inhibition after 48 hrs by MTT method; type: functional, cell-based; details: HepG2, 48 h
[25] = system: K562; test: Cytotoxicity against human K562 cells assessed as growth inhibition after 96 hrs by Giemsa staining-based light microscopy; type: functional, cell-based; details: K562, 96 h
[26] = biological target: Tubulin; test: Inhibition of tubulin (unknown origin) polymerization incubated 15 mins prior to GTP addition by spectrophotometry; type: protein-complex assay, Homo sapiens
[27] = system: K562; test: Cell cycle arrest in human K562 cells assessed as mitotic index at 4 uM (reference value: 3 +/- 1%)
[28] = biological target: Tubulin (Homo sapiens) (UniProt P68371+Q9H4B7+P0DPH7+P68366+Q13509+Q71U36+P04350+Q3ZCM7+P07437+P68363+Q9BQE3+Q6PEY2+Q13885+Q9BVA1+Q9BUF5); test: Displacement of [3H]colchicine from tubulin (unknown origin) at 5 uM after 10 mins; type: protein-complex assay
[29] = system: MCF7; test: Cytotoxicity against human MCF7 cells after 96 hrs by Giemsa staining-based light microscopy; type: functional, cell-based; details: MCF7, 96 h
[30] = system: RD; test: Induction of apoptosis in human RD cells at 500 to 2000 nM after 48 hrs by annexin-V/propidium iodide staining-based flow cytometry; type: functional, cell-based
[31] = Cytotoxicity against human PC3 cells assessed as growth inhibition after 48 hrs by MTT method; type: functional, cell-based; details: PC-3, 48 h
[32] = system: HepG2; test: Induction of apoptosis in human HepG2 cells at 500 to 2000 nM after 48 hrs by annexin-V/propidium iodide staining-based flow cytometry; type: functional, cell-based
[33] = Cytotoxicity against human D283 cells; type: functional, cell-based
[34] = Inhibition of hedgehog signaling in mouse NIH/3T3 Shh-Light II cells after 48 hrs by luciferase reporter gene assay; type: functional, cell-based
[35] = system: PC-3; test: Induction of apoptosis in human PC3 cells after 48 hrs by annexin-V/propidium iodide staining-based flow cytometry; type: functional, cell-based
[36] = system: K562; test: Cell cycle arrest in human K562 cells assessed as mitotic index at 10 times IC50 (reference value: […] +/- […]%); type: functional
[37] = system: HT-29; test: Cytotoxicity against human HT-29 cells assessed as growth inhibition after 48 hrs by MTT method; type: functional, cell-based; details: HT-29, 48 h
[38] = system: HeLa; test: Induction of apoptosis in human HeLa cells assessed as short, aberrantly shaped, tripolar or multipolar microtubule at 100 nM by immunofluorescence analysis; type: functional, cell-based
[39] = system: HeLa; test: Cell cycle arrest in human HeLa cells by propidium iodide staining-based flow cytometry; type: functional
[40] = system: A549; test: Cytotoxicity against human A549 cells assessed as growth inhibition after 48 hrs by MTT method; type: functional, cell-based; details: A549, 48 h
[41] = system: HeLa; test: Cell cycle arrest in human HeLa cells assessed as accumulation at G2/M phase at 100 nM by propidium iodide staining-based flow cytometry; type: functional
[42] = system: HeLa; test: Cytotoxicity against human HeLa cells assessed as growth inhibition after 48 hrs by MTT method; type: functional, cell-based
[43] = system: MCF7; test: Cell cycle arrest in human MCF7 cells expressing exogenous caspase-3 at 100 nM by immunofluorescence microscopy; type: functional, cell-based
[44] = system: HeLa; test: Cell cycle arrest in human HeLa cells assessed as mitotic rounded-up phenotype at 100 nM by light microscopy; type: functional, cell-based
[45] = Cytotoxicity against human HCT116 cells assessed as growth inhibition after 48 hrs by MTT method; type: functional, cell-based; details: HCT-116, 48 h
[46] = system: MCF7; test: Cell cycle arrest in human MCF7 cells at 100 nM by immunofluorescence microscopy; type: functional, cell-based
[47] = system: NCI/ADR-RES; test: Cytotoxicity against human NCI/ADR-RES cells assessed as growth inhibition after 96 hrs by Giemsa staining-based light microscopy; type: functional, cell-based

Compound	Activity [2]	pIC50 [3]	Activity [4]	Activity [5]	Activity [6]	Activity [11]	Activity [12]	Activity [14]	pIC50 [22]	pIC50 [25]	pIC50 [26]	inhibition [28]	pIC50 [29]	further results
CC(=O)O[C@H]1C(=O)[C@@]2(C)[C@H]([C@H](OC(=O)c3ccccc3)[C@]3(O)C[C@H](OC(=O)[C@H](O)[C@@H](NC(=O)c4ccccc4)c4ccccc4)C(C)=C1C3(C)C)[C@]1(OC(C)=O)CO[C@@H]1C[C@@H]2O [PACLITAXEL]	Active	4.85	inactive	Active	Active	Active	Active							Activity [1]: Active; Activity [7]: Dose-dependent effect; Activity [8]: inactive; Activity [9]: inactive; Activity [10]: Active
COc1ccc(/C=C\c2cc(OC)c(OC)c(OC)c2)cc1O [COMBRETASTATIN A4]								Active						Activity [13]: 65%; Activity [15]: Active; Activity [16]: Active; Activity [17]: Active; Activity [18]: Active; pIC50 [19]: 7.41
CC[C@]1(O)C[C@@H]2CN(CCc3c([nH]c4ccccc34)[C@@](C(=O)OC)(c3cc4c(cc3OC)N(C)[C@H]3[C@@](O)(C(=O)OC)[C@H](OC(C)=O)[C@]5(CC)C=CCN6CC[C@]43[C@@H]65)C2)C1 [VINBLASTINE]	Active	7.28	inactive	Active	Active	Active	Active	Active	8.52					Activity [20]: Active; pIC50 [21]: 6.84; pIC50 [23]: 7.82; Activity [8]: inactive; Activity [9]: inactive; pIC50 [24]: 7.09
COc1cc(C(=O)c2ccn(-c3cccc(N4CCCC4)c3)c2)cc(OC)c1OC										6.02	5.60	23%	7.80	Activity [27]: 39%
COc1cc(C(=O)c2ccn(-c3cccc(NC(=N)N)c3)c2)cc(OC)c1OC.Cl	Active	6.10	inactive	Active	Active	Active	Active		7.85	7.60	5.92	87%	7.70	pIC50 [21]: 7.80; Activity [30]: Active; Activity [1]: Active; pIC50 [31]: 8.41; Activity [32]: Active; pIC50 [33]: 6.17; inhibition [34]: Dose-dependent effect; Activity [35]: Dose-dependent effect; Activity [10]: Active; Activity [36]: 71%; pIC50 [24]: 7.31
COc1cc(C(=O)c2ccn(-c3ccccc3)c2)cc(OC)c1OC								Active	7.25		5.82	80%	6.15	pIC50 [37]: 7.05; Activity [38]: Active; Activity [39]: Dose-dependent effect; pIC50 [40]: 6.70; Activity [41]: Active; pIC50 [42]: 7.00; Activity [43]: inactive; Activity [44]: Active; pIC50 [23]: 7.35; pIC50 [45]: 7.11; Activity [46]: inactive; pIC50 [47]: 7.70
COc1cc(C(=O)c2ccn(-c3cccc(NC(C)C)c3)c2)cc(OC)c1OC										6.30	5.60	53%	7.70	Activity [27]: 69%

Reference: ChEMBL document CHEMBL3351435, “New pyrrole derivatives with potent tubulin polymerization inhibiting activity as anticancer agents including hedgehog-dependent cancer” (J Med Chem, 2014)
